Experimental data reported in PubChem BioAssay (NCI).
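Step 1: Grow cells in 96-well plates. Step 2: Expose to compound for 48 hours at 5 concentrations. Step 3: Interpolate endpoints linearly; if unreached, use highest concentration. TGI: concentration producing complete growth inhibition.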 Where a SMILES comes first, the peptide text is derived from it. [ ]: non-standard residue; d: D form. The star is where a group is joined. X28 = COC1=CC(=O)N(C(=O)[C@@H](O*)C(C)C)[C@H]1Cc1ccccc1; NMeL = CN[C@@H](CC(C)C)C(=O)O; Cbz = O=C(OCc1ccccc1)*

Experiments:
Test in all cases: inhibition of tumour cell growth, NCI panel, 48 h
[1] = system: DU-145 prostate
[2] = system: NCI-H522 lung
[3] = system: OVCAR-5 ovarian
[4] = system: PC-3 prostate
[5] = system: SK-OV-3 ovarian
[6] = system: SN12C renal
[7] = system: T-47D breast
[8] = system: U251 CNS
[9] = system: UACC-62 melanoma
[10] = system: UO-31 renal

SMILES	TGI [1]	TGI [2]	TGI [3]	TGI [4]	TGI [5]	TGI [6]	TGI [7]	TGI [8]	TGI [9]	TGI [10]
COC1=CC(=O)N(C(=O)[C@@H](OC(=O)[C@@H]2CCCN2C(=O)[C@@H]2CCCN2C(=O)[C@H](CC(C)C)N(C)C(=O)[C@@H](NC(=O)[C@@H](NC(=O)OCc2ccccc2)C(C)C)C(C)C)C(C)C)[C@H]1Cc1ccccc1 (Cbz-VV[NMeL]PP-X28)	> 100 µM	> 100 µM	> 100 µM	76.8 µM	> 100 µM	> 100 µM	> 100 µM	> 100 µM	> 100 µM	> 100 µM
Cc1ccc(C(=O)/C=C/N2CCN(c3cccc(C(F)(F)F)c3)CC2)cc1	38 µM	35.4 µM	39.1 µM	> 100 µM	95.5 µM	36.3 µM	76.5 µM	31.4 µM	34.8 µM	36.7 µM
O=C1O[C@H](COC(=O)c2ccccc2)[C@@H](OC(=O)c2ccccc2)C=C1OC(=O)c1ccccc1	> 100 µM	37.8 µM	40.9 µM	62.7 µM	> 100 µM	36.9 µM	54.6 µM	32.3 µM	49.6 µM	> 100 µM
CCC(C)N1CN(c2ccccc2)C2(CCN(CCCC(=O)c3ccc(F)cc3)CC2)C1=O (stereo not given)	13.4 µM	20.6 µM	8.12 µM	23.1 µM	21.5 µM	14.3 µM	15.9 µM	16.9 µM	32.9 µM	15.6 µM
O=C(O)C1Cc2ccccc2OC1=O (stereo not given)	> 100 µM	> 100 µM	> 100 µM	> 100 µM	> 100 µM	> 100 µM	> 100 µM	> 100 µM	> 100 µM	> 100 µM
CCCCCCCCC[C@@H]1C[C@@H]2CCC3C(C(=O)OCCCCNC(=O)OCc4ccccc4)=C(C)NC(=N1)N32 (stereo not given in full)	21 µM	6.01 µM	21.4 µM	7.32 µM	8.74 µM	10.7 µM	10.6 µM	10.3 µM	13.7 µM	13.7 µM
O=C(O)C1(CC(CCCN2CCCCC2)c2ccccc2)CCCC1 (stereo not given)	> 100 µM	> 100 µM	> 100 µM	> 100 µM	> 100 µM	> 100 µM	> 100 µM	> 100 µM	> 100 µM	> 100 µM
COc1cc(C2c3cc4c(cc3OC(N3CCOCC3)C2C)OCO4)cc(OC)c1OC (stereo not given)	> 49.6 µM	9.61 µM	> 65.7 µM	> 100 µM	23.4 µM	> 100 µM	> 100 µM	> 20.1 µM	56.5 µM	55.2 µM
CN1CCN(CCCCNc2cc3c4ccccc4c(NCCCCN4CCN(C)CC4)cc3c3ccccc23)CC1	3.14 µM	6.51 µM	12.5 µM	21.2 µM	29.4 µM	9.27 µM	84.2 µM	4.21 µM	6.05 µM	11.8 µM
CCOC(=O)c1[nH]n(-c2ccccc2)c(=O)c1C=NC(=S)C(N)=S	> 100 µM	35.5 µM	> 100 µM	> 100 µM	> 100 µM	> 100 µM	41.8 µM	> 100 µM	> 100 µM	42.2 µM
CCC(c1nc2ccccc2c(=O)n1NC(=O)C(C)(C)C)C1(O)CCCCC1 (stereo not given)	> 100 µM	> 100 µM	> 100 µM	> 100 µM	> 100 µM	> 100 µM	> 100 µM	> 100 µM	> 100 µM	> 100 µM
CNc1nc(=O)c(C#N)c(-c2ccc(C)cc2)s1	> 100 µM	> 100 µM	> 100 µM	> 100 µM	> 100 µM	> 100 µM	> 100 µM	> 100 µM	> 100 µM	> 100 µM
Cc1ccc(-c2nc3n(c2/C=N\N=C(N)N)CCS3)cc1	26.8 µM	18.1 µM	30.1 µM	28.5 µM	29 µM	29.6 µM	29 µM	28.4 µM	32.1 µM	30.5 µM
CC(=O)O[C@H]1CC[C@H]2[C@@H]3CC[C@H]4Nc5c(cnn5S(C)(=O)=O)C[C@]4(C)[C@H]3CC[C@]12C	> 100 µM	> 100 µM	> 100 µM	> 100 µM	> 100 µM	> 100 µM	> 100 µM	> 100 µM	> 100 µM	> 100 µM
COC(=O)C1=C2Nc3ccccc3C23CCN2C(O)C4(CC5CC67CCOC6CCN6CCC8(c9cccc(OC)c9N(C4)C58O)C67)C4OCCC4(C1)C23 (stereo not given)	> 100 µM	> 100 µM	> 100 µM	> 100 µM	> 100 µM	> 100 µM	55.7 µM	> 100 µM	> 100 µM	> 100 µM
CCN(CC)CCNc1ccc2nnn3c4ccc(OC(C)=O)cc4c(=O)c1c23	15.1 µM	5.92 µM	24 µM	17.3 µM	21 µM	15.8 µM	31.1 µM	15.5 µM	25.3 µM	12.3 µM
COC(=O)C(Cc1ccccc1)NC(=O)C(CCCN=C(N)N)NC(=O)OCc1ccccc1 (stereo not given)	> 100 µM	> 100 µM	> 100 µM	> 100 µM	> 100 µM	> 100 µM	> 100 µM	> 100 µM	> 100 µM	> 100 µM
COc1ccc(CCNC(=S)/N=C\C2=C(O)c3ccccc3C2=O)cc1OC	> 100 µM	> 100 µM	> 100 µM	> 100 µM	> 100 µM	> 100 µM	> 100 µM	> 100 µM	> 100 µM	> 100 µM
CN(C)C(=O)CO/N=C1/C(c2c(O)[nH]c3ccccc23)=Nc2ccccc21	> 100 µM	> 100 µM	> 100 µM	> 100 µM	> 100 µM	> 100 µM	> 100 µM	> 100 µM	> 100 µM	> 100 µM
CCOC(=O)c1ccc2c(=O)n3c(C(=O)OCC)ccc3c(=O)n12	> 100 µM	> 100 µM	> 100 µM	> 100 µM	> 100 µM	> 100 µM	> 100 µM	> 100 µM	> 100 µM	> 100 µM
CC1=NN(c2cccc(Cl)c2)C2(C1)SCC(=O)N2c1nc2ccccc2s1 (stereo not given)	> 100 µM	75.5 µM	> 100 µM	65.1 µM	85.3 µM	69.1 µM	84.4 µM	75.2 µM	> 100 µM	57.4 µM
CC1(C)CC(=O)C2=C(C1)N(c1ccccc1)C1(O)C=CC(=O)C3=C(O)c4ccccc4C(=O)C321 (stereo not given)	> 100 µM	45.8 µM	> 100 µM	63.5 µM	> 100 µM	> 100 µM	> 100 µM	> 100 µM	63.5 µM	47 µM
Cn1c2cc(Cl)ccc2c2ccc3c(c21)C(=O)C=CC3=O	> 100 µM	22.9 µM	> 100 µM	> 82 µM	> 100 µM	21.2 µM	55.6 µM	> 100 µM	> 31.6 µM	> 100 µM
CCN(CC)CCNC(=O)c1cc2cc(NC(=O)c3cc4cc(NC(=O)c5cc6cc([N+](=O)[O-])ccc6[nH]5)ccc4[nH]3)ccc2[nH]1	> 100 µM	> 100 µM	> 100 µM	> 100 µM	> 100 µM	> 100 µM	> 100 µM	> 100 µM	> 100 µM	> 100 µM
OC1NC2CC3NC(O)C(O)NC3CC2NC1O (stereo not given)	> 100 µM	> 100 µM	> 100 µM	> 100 µM	> 100 µM	> 100 µM	> 100 µM	> 100 µM	> 100 µM	> 100 µM
N#CCCCCC12C3C(=O)N(c4ccccc4)C(=O)C3ON1O[C@@H]1C(=O)N(c3ccccc3)C(=O)[C@@H]12 (stereo not given in full)	> 100 µM	> 100 µM	> 100 µM	> 100 µM	> 100 µM	> 100 µM	> 100 µM	> 100 µM	> 100 µM	> 100 µM
CS(=O)(=O)OC1CCN(C2(c3cccc(O)c3)CCCCC2)CC1	> 100 µM	> 100 µM	> 100 µM	> 100 µM	> 100 µM	> 100 µM	> 100 µM	> 100 µM	> 100 µM	> 100 µM
